Values of other authors in patent US11369575B2, “PPARα agonist compositions and methods of use” (The Board of Regents of the University of Oklahoma, priority 2019, dated 2022).

Details: free fenofibrate after IVT dosing

## CC(C)OC(=O)C(C)(C)Oc1ccc(C(=O)c2ccc(Cl)cc2)cc1 [fenofibrate]
  time in which active drug levels disappear: less than 1 week
